These are literature values, as cited in US6900176B2, “Pest control agents/depsipeptides” (priority 1999, dated 2005).

SMILES strings stand for the structures.

The data set concerns silkworms. The conditions noted are these: known from the literature (Kanaoka et al. 1979; JP 05 271 013).

With `CC(C)C[C@H]1C(=O)O[C@H](Cc2ccccc2)C(=O)N(C)[C@@H](CC(C)C)C(=O)O[C@H](C)C(=O)N(C)[C@@H](CC(C)C)C(=O)O[C@H](Cc2ccccc2)C(=O)N(C)[C@@H](CC(C)C)C(=O)O[C@H](C)C(=O)N1C` [PF1022A], the “insecticidal activity against silkworms” value was “insecticidal activity”. Take `CC(C)C[C@H]1C(=O)O[C@H](C(C)C)C(=O)N(C)[C@@H](CC(C)C)C(=O)O[C@H](C(C)C)C(=O)N(C)[C@@H](CC(C)C)C(=O)O[C@H](C(C)C)C(=O)N(C)[C@@H](CC(C)C)C(=O)O[C@H](C(C)C)C(=O)N1C` [bassianolide]: the “insecticidal activity against silkworms” value is reported as “insecticidal activity”.
